Data from US10344032B2, “Agents for treating neurogenic inflammation and neuropathic hyperalgesia related disorders” (PÉCSI TUDOMÁNYEGYETEM, priority 2014, dated 2019).

Assays:
rat [1] = experiment: Mustard oil-induced acute neurogenic inflammation in the paw skin of the rat (Evans blue leakage); format: in vivo; conditions: 100 μg/kg p.o. 60 min before 1% mustard oil; vs vehicle-treated control; listed as BST-1693
Method: Deep anaesthesia was performed with sodium-thiopental (50 mg/kg i.p.). Both hindlegs of the rats were acutely denervated (the sciatic and the saphenous nerves were cut 30 min before the induction of inflammation) to avoid the influence of reflex mechanisms. Inflammation in the dorsal skin of the hindpaws was evoked by topical application of 1% mustard oil dissolved in paraffin oil. This compound selectively activates capsaicin-sensitive peptidergic fibres through the TRPA1 ion channel, therefore induces acute inflammatory reaction with exclusively neurogenic mechanisms via the release of pro-inflammatory sensory neuropeptides, such as substance P and CGRP. Extravasation of plasma albumin was measured by the Evans blue leakage method (see FIG. 2). Evans blue (50 mg/kg) which binds to plasma albumine, was injected i.v. and neurogenic inflammation was induced 5 min later. […] The amount of the accumulated Evans blue, which quantitatively correlates with the intensity of plasma extravasation, was expressed as μg dye/g wet skin (Helyes et at, 1997, 2001, 2006; Borzsei et al., 2008). […]
Extravasation of plasma albumin in the dorsal skin of the hindpaws was measured by the Evans blue leakage method. […] The skin of the hindpaws was removed, their weight was measured and the extravasated dye was extracted with formamide at room temperature during 72 h for photometric determination at 620 nm. […]

rat [2] = experiment: Plantar incision-induced heat allodynia (increasing temperature water bath), postoperative pain model; format: in vivo; conditions: 100 μg/kg p.o., measured 60 min later; one day after plantar incision
Method: Rats were anaesthesized with sodium-pentobarbital (Euthasol, 40 mg/kg i.p.) and a 1 cm longitudinal incision was made through the skin, fascia and muscle of the plantar aspect of the hindpaw. Significant decrease of both the thermonociceptive and mechanonociceptive thresholds (heat and mechanical allodynia) of the paw develops 1 day after this procedure.
One hundred and forty five (145) female Wistar rats (150-250 g) kept in the Animal House of the University of Pecs in a temperature-controlled room provided with a 12-hour light-dark cycle, standard rat chow and water ad libitum were used in this experimental series. […] Touch sensitivity was measured with a dynamic plantar aesthesiometer (DPA) and the thermonociceptive threshold was determined with an increasing temperature water-bath (ITWB) on the same rats (see below). […] Test compounds were administered p.o. and post-dose touch sensitivity and thermonociceptive thresholds were measured 60 min later. […]
b) The thermonociceptive threshold of the paw was determined with an increasing temperature water bath developed and validated in our laboratories in cooperation with Experimetria Ltd. (Budapest, Hungary). […] The controlling unit has a 30° C. starting temperature, heating rate and a display continuously showing the actual bath temperature measured by a thermocouple at the middle position 35 mm below the water level. […]

sst4 receptor = target: T1, sst4 receptor (Homo sapiens, UniProt P31391); experiment: Somatostatin sst4 receptor-coupled G-protein activation assay ([35S]GTPγS binding); format: biochemical; conditions: 100 nM concentration; membrane fractions of CHO cells stably expressing the sst4 receptor; percentage over specific binding in absence of agonists
T1 construct: expressed in transfected cells
T1 sequence (P31391 whole entry): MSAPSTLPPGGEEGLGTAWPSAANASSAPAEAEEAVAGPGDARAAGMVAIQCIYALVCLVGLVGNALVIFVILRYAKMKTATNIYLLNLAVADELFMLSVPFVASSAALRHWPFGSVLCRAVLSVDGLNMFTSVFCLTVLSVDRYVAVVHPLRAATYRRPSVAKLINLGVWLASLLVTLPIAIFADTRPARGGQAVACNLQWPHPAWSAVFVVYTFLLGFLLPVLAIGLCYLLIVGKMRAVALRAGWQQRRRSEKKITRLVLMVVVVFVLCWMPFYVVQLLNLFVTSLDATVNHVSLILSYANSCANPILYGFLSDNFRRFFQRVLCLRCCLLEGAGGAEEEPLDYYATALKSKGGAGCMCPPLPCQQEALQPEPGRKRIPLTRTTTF
Excerpt: [^35S]GTPγS binding assay is a functional test determining agonist-induced and receptor-mediated G-protein activation which is based on the increase in guanine nucleotide exchange at G-proteins upon agonist stimulation. The interaction of a G protein-coupled receptor (GPCR) with the G protein is the first step in the transduction of the receptor binding signal to the activation of the second-messenger systems. We measured the level of [^35S]-GTPγS bound to the α subunit of G proteins and determined the efficacy of the compounds. Compounds which elicited 200% [^35S]GTPγS binding in nanomolar concentration were considered effective agonist. The examined compounds were added into the medium in 1 nM, 10 nM, 100 nM 1 μM and 10 μM concentrations.
Membrane fractions were prepared from CHO cells stably expressing the sst4 receptor in Tris-EGTA buffer (50 mM Tris-HCl, 1 mM EGTA, 3 mM MgCl2, 100 mM NaCl, pH 7.4). These membrane fractions (˜10 μg of protein/sample) were incubated at 30° C. for 60 min in the same Tris-EGTA buffer containing [^35S]GTPγS (0.05 nM) and increasing concentrations (10^−9 to 10^−5 M) of test compounds in the presence of 30 μM GDP in a final volume of 500 μl. Non-specific binding was determined in the presence of 10 μM unlabelled GTPγS. Total binding was measured in the absence of test compounds. To calculate the specific binding, non-specific binding was subtracted from total binding. The reaction was terminated by filtrating the samples through Whatman GF/B glass fiber filters. Using 48-well Slot Blot Manifold from Cleaver Scientific filters were washed three times with ice-cold 50 mM Tris-HCl buffer (pH 7.4). After drying for 60 min at 37° C., radioactivity was measured in scintillation liquid in a Packard Tri-Carb 2800 TR scintillation counter. Test compound-induced G-protein stimulation was given as percentage over the specific [^35S]GTPγS binding observed in the absence of agonists.

[3] = Analgesic and anti-inflammatory models shown within the examples; conditions: in vivo

Structure (SMILES): Cc1c(C)n(Cc2ccccc2)c2ncnc(NCCc3ccc(N)cc3)c12 [Example 1, [2-(4-Amino-phenyl)-ethyl]-(7-benzyl-5,6-dimethyl-7H-pyrrolo[2,3-d]pyrimidin-4-yl)-amine]
- inhibition of acute neurogenic inflammatory response (Evans blue accumulation in hindpaw skin) (rat [1]): 70.4%
- melting point: 150.7 to 151.8 °C

Structure (SMILES): CC(=O)Nc1ccc(CCNc2ncnc3c2c(C)c(C)n3Cc2ccccc2)cc1 [Example 3, N-{4-[2-(7-Benzyl-5,6-dimethyl-7H-pyrrolo[2,3-d]pyrimidin-4-ylamino)-ethyl]-phenyl}-acetamide]
- melting point: 186.9 to 187.7 °C
- effectiveness in inhibiting the decrease of the heat threshold (rat [2]): 18.2%
- [35S]GTPγS binding (G-protein activation) (sst4 receptor): 210.67%

Structure (SMILES): COc1ccc(CCNc2ncnc3c2cc(C)n3Cc2ccc(OC)c(OC)c2)cc1OC [compound (a)]
- activity in the analgesic and anti-inflammatory models [3]: totally inactive
